Read-outs that look alike come from different tables or passages of the source.
Columns and labels:
[1] = system: malignant cells; assay: Apoptosis assays of FIG. 2 (Annexin V method); type: cell-based
Protocol: Jurkat (A, G), HCT-116 (B), MCF-7 (C), MDA-MB-453 (D), and Meso-2 cells (E) were exposed to MitoVES at concentrations 1-50 μM (A-F), or to VES4TPP or α-TOS at 50 μM (B). At the times shown, the cells were harvested and assessed for apoptosis. […] Apoptosis data shown are derived from three independent experiments and are presented as mean values±S.D., the micrographs are representative images of at least three independent experiments.
Toxicity of α-TOS, VE11S (“VES”), MitoVE3S, MitoVE5S, MitoVE7S, MitoVE9S, MitoVE11S (“MitoVES”), MitoVE11AE (“MitoVEAE”), MitoVE11F (“MitoVEF”), MitoVE11M (“MitoVEM”), and VES4TPP towards cancer cells was assessed on the basis of IC50, as detailed in Turanek, J., et al. ((2008). Liposomal formulation of vitamin E analogs as an efficient and selective anti-cancer treatment. Clin. Cancer Res. (submitted)). […]

[2] = system: Ras-transformed B9 cells with a defective Complex II; assay: Apoptosis in Ras-transformed B1 and B9 cells (FIG. 4C); type: cell-based, Chinese hamster
Protocol: 4C—After 24 h of treatment with Complex II targeting drugs TTFA or MitoVES, Ras transformed B1 and B9 cells were assessed for apoptosis using the Annexin V binding method.
The following cell lines used in this study were obtained from ATCC, unless specified otherwise: Human T lymphoma cells Jurkat, human mesothelioma cells Meso-I, MM-BI, Ist-Mes, Ist-Mes-2 (Pass, H. I. et al. Characteristics of nine newly derived mesothelioma cell lines. Ann. Thorac. Surg. 59, 835-844 (1995)), human breast cancer cells MCF-7 (erbB2-low) and MDA-MB-453 (erbB2-high), human colorectal cells HCT-116, human hepatocarcinoma cells Huh-7, mouse mesothelioma cells AE17 (Jackaman, C. et al. IL-2 intratumoral immunotherapy enhances CD8+ T cells that mediate destruction of tumor cells and tumor-associated vasculature: a novel mechanism for IL-2. J. Immunol. 171, […] (2003), human non-malignant mesothelial cells Met-5A, […] (Claycomb, W. C. et al. HL-1 cells: a cardiac muscle cell line that contracts and retains phenotypic characteristics of the adult cardiomyocyte. Proc. Natl. Acad. Sci. USA 95, 2979-2984 […]) and H9c2, and the human endothelial-like cells EAhy926 (Edgell, C. J., McDonald, C. C. & Graham, J. B. Permanent cell line expressing human factor VIII-related antigen established by hybridization. Proc. Natl. Acad. Sci. USA 80, 3734-3737 (1983)). Jurkat cells were grown in the RPMI medium while DMEM was used for other malignant cell lines and for Met-5A cells, supplemented with 10% FCS and antibiotics. HL-1 cells, maintained in fibronectin/gelatine-coated dishes, were grown in the Claycomb medium supplemented with noradrenalin (Claycomb, W. C. et al. HL-1 cells: a cardiac muscle cell line that contracts and retains phenotypic characteristics of the adult cardiomyocyte. Proc. Natl. Acad. Sci. USA 95, 2979-2984 […]), EAhy926 cells were grown in complete DMEM supplemented with HAT (Edgell, C. J., McDonald, C. C. & Graham, J. B. Permanent cell line expressing human factor VIII-related antigen established by hybridization. Proc. Natl. Acad. Sci. USA 80, 3734-3737 (1983)). Cells deficient in mtDNA (ρ^0 phenotype) were prepared as detailed in Weber, T. et al., (Mitochondria play a central role in apoptosis induced by α-tocopheryl succinate, an agent with anticancer activity. Comparison with receptor-mediated pro-apoptotic signaling. Biochemistry 42, 4277-4291 (2003)). Acquisition of the ρ^0 phenotype was confirmed by lack of expression by the cells of the mtDNA-encoded cytochrome c oxidase subunit II (COXII not shown). […]

[3] = system: T lymphoma cells; details: medium pH ~6.2 compared to pH 7.2; cited from earlier work
[4] = pH 6.2 versus pH 7.4 of the medium; cited from earlier work
[5] = system: EAhy926 cells; details: level taken from Dong et al, Cancer Res 2007; cited from earlier work
[6] = cited from earlier work

SMILES | apoptosis in malignant versus normal equivalent cell types ([1]; FIG. 2, exception dividing endothelial cells) | fold more apoptogenic / more active than α-TOS in cancer cells ([1]; relative to α-TOS) | sensitivity to apoptosis of Ras-transformed B9 cells compared to Ras-transformed B1 cells ([2]; 24 h treatment, Annexin V binding) | sensitivity after reconstitution of Complex II function (human SDHC) in Ras-transformed B9 cells ([2]; B9 cells transfected to express human SDHC) | greater apoptogenic efficacy at acidic pH [3] [times] | uptake of the compound at lower pH [4] | concentration needed for comparable levels of effects on endothelial cells [5] [µM] | fold higher percentage in the protonated form ([6]; acidic pH of 6.2-6.4 of the tumour interstitium versus neutral pH) | fraction deprotonated ([6]; at neutral pH) [%] | pKa [6] | pKa ([6]; listed as α-tocopheryl succinate)
Cc1c(C)c2c(c(C)c1OC(=O)CCC(=O)[O-])CCC(C)(CCCCCCCCCCC[P+](c1ccccc1)(c1ccccc1)c1ccccc1)O2 (centres unmarked) [MitoVE11S] | causes apoptosis selectively in malignant cells | up to 50 fold | much less sensitive | restored the sensitivity | – | – | – | – | – | – | –
Cc1c(C)c2c(c(C)c1OC(=O)CCC(=O)O)CC[C@@](C)(CCC[C@H](C)CCC[C@H](C)CCCC(C)C)O2 [α-TOS, α-tocopheryl succinate, reference compound] | – | – | – | – | ~3 | about twice as much | 25 to 50 | 10-15 fold | ~98 | < 6 | 5.6
